Experimental data from US20260013501A1, “HERBICIDAL DERIVATIVES” (SYNGENTA CROP PROTECTION AG, priority 2022, published 2026).

How the values were obtained:
Assay type in all cases: in vivo
[1] = system: Amaranthus palmeri (AMAPA); experiment: Post-emergence Test (Table B2), AMAPA; design: key: five-point scale: 5=81-100%, 4=61-80%, 3=41-60%, 2=21-40%, 1=0-20% damage; conditions: evaluated after 13 days
Description: (§1) Seeds of a variety of test species are sown in standard soil in pots (Ipomoea hederacea (IPOHE), Zea mays (ZEAMX), Echinochloa crus-galli (ECHCG), Amaranthus palmeri (AMAPA), (Amaranthus retoflexus (AMARE), and (Setaria faberi (SETFA)). After 8 days cultivation under controlled conditions in a glasshouse (at 24° C./16° C., day/night; 14 hours light; 65% humidity), the plants are sprayed with an aqueous spray solution derived from the formulation of the technical active ingredient in acetone/water (50:50) solution containing 0.5% Tween 20 (polyoxyethelyene sorbitan monolaurate, CAS RN 9005-64-5). Rate of application is shown in g/ha in the tables below. The test plants are then grown in a glasshouse under controlled conditions in a glasshouse (at 24° C./16° C., day/night; 14 hours light; 65% humidity) and watered twice daily. After 13 days the test is evaluated for the percentage damage caused to the plant. The biological activities are shown in the following table on a five-point scale (5=81-100%; 4=61-80%; 3=41-60%; 2=21-40%; 1=0-20%; -=not tested).

Setaria faberi (SETFA) = experiment: Post-emergence Test (Table B2), SETFA; design: key: five-point scale: 5=81-100%, 4=61-80%, 3=41-60%, 2=21-40%, 1=0-20% damage; conditions: evaluated after 13 days
Description: as §1

[2] = system: Amaranthus retoflexus (AMARE); experiment: Post-emergence Test (Table B2), AMARE; design: key: five-point scale: 5=81-100%, 4=61-80%, 3=41-60%, 2=21-40%, 1=0-20% damage; conditions: evaluated after 13 days
Description: as §1

[3] = system: Echinochloa crus-galli (ECHCG); experiment: Post-emergence Test (Table B2), ECHCG; design: key: 5-point damage scale: 5=81-100%, 4=61-80%, 3=41-60%, 2=21-40%, 1=0-20%; conditions: evaluated after 13 days
Description: as §1

Zea mays (ZEAMX) [4] = experiment: Post-emergence Test (Table B2), ZEAMX; design: key: 5-point damage scale: 5=81-100%, 4=61-80%, 3=41-60%, 2=21-40%, 1=0-20%; conditions: evaluated after 13 days
Outline: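 Evaluation 13 days post-spray gives percent plant damage, reported in five 20% bands (1=0-20% up to 5=81-100%). Test species, sown in soil and kept at 24/16 °C day/night with 14 h light, are treated with compound in 50:50 acetone/water plus 0.5% Tween 20, applied per g/ha.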

[5] = system: Amaranthus retoflexus (AMARE); experiment: Pre-emergence Test (Table B1), AMARE; conditions: Rate 250 g/Ha, evaluated after 13 days
[6] = system: Ipomoea hederacea (IPOHE); experiment: Pre-emergence Test (Table B1), IPOHE; conditions: evaluated after 13 days
[7] = system: Echinochloa crus-galli (ECHCG); experiment: Pre-emergence Test (Table B1), ECHCG; conditions: evaluated after 13 days
Zea mays (ZEAMX) [8] = experiment: Pre-emergence Test (Table B1), ZEAMX; conditions: evaluated after 13 days
[9] = system: Ipomoea hederacea (IPOHE); experiment: Post-emergence Test (Table B2), IPOHE; design: key: five-point scale: 5=81-100%, 4=61-80%, 3=41-60%, 2=21-40%, 1=0-20% damage; conditions: rate 1000 g/Ha, evaluated after 13 days
Description: as §1

[10] = system: Amaranthus palmeri (AMAPA); experiment: Pre-emergence Test (Table B1), AMAPA; conditions: Rate 250 g/Ha, evaluated after 13 days

CCn1c(Cc2cccc(C(F)(F)F)c2)cc(=O)c(C(=O)O)c1-c1ccc(Cl)c(Cl)c1 [Compound 8, 2-(3,4-dichlorophenyl)-1-ethyl-4-oxo-6-[[3-(trifluoromethyl)phenyl]methyl]pyridine-3-carboxylic acid]
0: percentage damage caused to the plant, AMAPA ([1]; rate 250 g/Ha) | percentage damage caused to the plant, SETFA (Setaria faberi (SETFA); rate 250 g/Ha) | percentage damage caused to the plant, AMARE ([2]; rate 250 g/Ha) | percentage damage caused to the plant, ECHCG ([3]; rate 250 g/Ha) | percentage damage caused to the plant, ZEAMX (Zea mays (ZEAMX) [4]; rate 250 g/Ha)

CCn1c(Cc2cccc(OC)c2)cc(=O)c(C(=O)O)c1-c1ccc(Cl)c(Cl)c1 [Compound 9, 2-(3,4-dichlorophenyl)-1-ethyl-6-[(3-methoxyphenyl)methyl]-4-oxo-pyridine-3-carboxylic acid]
0: Pre-emergence Test, percentage damage caused to the plant (five-point scale), AMARE [5] | Pre-emergence Test, percentage damage caused to the plant (five-point scale), IPOHE ([6]; Rate 250 g/Ha) | percentage damage caused to the plant, SETFA (Setaria faberi (SETFA); rate 250 g/Ha) | percentage damage caused to the plant, AMARE ([2]; rate 250 g/Ha) | percentage damage caused to the plant, ECHCG ([3]; rate 250 g/Ha) | Pre-emergence Test, percentage damage caused to the plant (five-point scale), ECHCG ([7]; Rate 250 g/Ha) | Pre-emergence Test, percentage damage caused to the plant (five-point scale), ZEAMX (Zea mays (ZEAMX) [8]; Rate 250 g/Ha) | percentage damage caused to the plant, ZEAMX (Zea mays (ZEAMX) [4]; rate 250 g/Ha)

CCn1c(Cc2ccccc2Cl)cc(=O)c(C(=O)O)c1-c1ccc(Cl)c(Cl)c1 [Compound 16, 6-[(2-chlorophenyl)methyl]-2-(3,4-dichlorophenyl)-1-ethyl-4-oxo-pyridine-3-carboxylic acid]
0: percentage damage caused to the plant, AMAPA ([1]; rate 1000 g/Ha) | Pre-emergence Test, percentage damage caused to the plant (five-point scale), IPOHE ([6]; Rate 1000 g/Ha) | percentage damage caused to the plant, SETFA (Setaria faberi (SETFA); rate 1000 g/Ha) | percentage damage caused to the plant, AMARE ([2]; rate 1000 g/Ha) | percentage damage caused to the plant, ECHCG ([3]; rate 1000 g/Ha) | Pre-emergence Test, percentage damage caused to the plant (five-point scale), ECHCG ([7]; Rate 1000 g/Ha) | percentage damage caused to the plant, ZEAMX (Zea mays (ZEAMX) [4]; rate 1000 g/Ha)

CCn1c(Cc2cccc(C(C)C)c2)cc(=O)c(C(=O)O)c1-c1ccc(Cl)c(Cl)c1 [Compound 23, 2-(3,4-dichlorophenyl)-1-ethyl-6-[(3-isopropylphenyl)methyl]-4-oxo-pyridine-3-carboxylic acid]
0: percentage damage caused to the plant, ECHCG ([3]; rate 1000 g/Ha) | percentage damage caused to the plant, ZEAMX (Zea mays (ZEAMX) [4]; rate 1000 g/Ha) | percentage damage caused to the plant, IPOHE [9]

CCn1c(Cc2ccccc2OC)cc(=O)c(C(=O)O)c1-c1ccc(Cl)c(Cl)c1 [Compound 24, 2-(3,4-dichlorophenyl)-1-ethyl-6-[(2-methoxyphenyl)methyl]-4-oxo-pyridine-3-carboxylic acid]
0: percentage damage caused to the plant, ECHCG ([3]; rate 1000 g/Ha) | percentage damage caused to the plant, ZEAMX (Zea mays (ZEAMX) [4]; rate 1000 g/Ha) | percentage damage caused to the plant, IPOHE [9]

CCn1c(Cc2ccc(C3CC3)cc2)cc(=O)c(C(=O)O)c1-c1ccc(Cl)c(Cl)c1 [Compound 25, 6-[(4-cyclopropylphenyl)meth-yl]-2-(3,4-dichlorophenyl)-1-ethyl-4-oxo-pyridine-3-carboxylic acid]
0: percentage damage caused to the plant, ECHCG ([3]; rate 1000 g/Ha) | percentage damage caused to the plant, IPOHE [9]

CCn1c(Cc2cccc(SC)c2)cc(=O)c(C(=O)O)c1-c1ccc(Cl)c(Cl)c1 [Compound 31, 2-(3,4-dichlorophenyl)-1-ethyl-6-[(3-methylsulfanylphenyl)methyl]-4-oxo-pyridine-3-carboxylic acid]
0: percentage damage caused to the plant, ECHCG ([3]; rate 1000 g/Ha) | percentage damage caused to the plant, ZEAMX (Zea mays (ZEAMX) [4]; rate 1000 g/Ha) | percentage damage caused to the plant, IPOHE [9]

CCn1c(Cc2ccc(C)cc2F)cc(=O)c(C(=O)O)c1-c1ccc(Cl)c(Cl)c1 [Compound 67, 2-(3,4-dichlorophenyl)-1-3ethyl-6-[(2-fluoro-4-methyl-phenyl)methyl]-4-oxo-pyridine-3-3-carboxylic acid]
0: percentage damage caused to the plant, AMAPA ([1]; rate 250 g/Ha) | Pre-emergence Test, percentage damage caused to the plant (five-point scale), AMARE [5] | Pre-emergence Test, percentage damage caused to the plant (five-point scale), IPOHE ([6]; Rate 250 g/Ha) | percentage damage caused to the plant, SETFA (Setaria faberi (SETFA); rate 250 g/Ha) | percentage damage caused to the plant, ECHCG ([3]; rate 250 g/Ha) | Pre-emergence Test, percentage damage caused to the plant (five-point scale), ZEAMX (Zea mays (ZEAMX) [8]; Rate 250 g/Ha) | Pre-emergence Test, percentage damage caused to the plant (five-point scale), AMAPA [10]

CCn1c(Cc2ccc(OC)cc2F)cc(=O)c(C(=O)O)c1-c1ccc(Cl)c(Cl)c1 [Compound 89, 2-(3,4-dichlorophenyl)-1-ethyl-6-[(2-fluoro-4-methoxy-phenyl)methyl]-4-oxo-pyridine-3-carboxylic acid]
0: percentage damage caused to the plant, AMAPA ([1]; rate 250 g/Ha) | Pre-emergence Test, percentage damage caused to the plant (five-point scale), IPOHE ([6]; Rate 250 g/Ha) | percentage damage caused to the plant, SETFA (Setaria faberi (SETFA); rate 250 g/Ha) | percentage damage caused to the plant, AMARE ([2]; rate 250 g/Ha) | percentage damage caused to the plant, ECHCG ([3]; rate 250 g/Ha) | Pre-emergence Test, percentage damage caused to the plant (five-point scale), ZEAMX (Zea mays (ZEAMX) [8]; Rate 250 g/Ha)

CCn1c(Cc2ccc(F)c(C(=O)O)n2)cc(=O)c(C(=O)O)c1-c1ccc(Cl)c(Cl)c1 [Compound 98, 6-[(6-carboxy-5-fluoro-2-pyridyl)methyl]-2-(3,4-dichlorophenyl)-1-ehtyl-4-oxo-pyridine-3-carboxylic acid]
0: Pre-emergence Test, percentage damage caused to the plant (five-point scale), ZEAMX (Zea mays (ZEAMX) [8]; Rate 1000 g/Ha) | percentage damage caused to the plant, ZEAMX (Zea mays (ZEAMX) [4]; rate 1000 g/Ha) | percentage damage caused to the plant, IPOHE [9]

CCn1c(Cc2cc(O)cc(F)n2)cc(=O)c(C(=O)O)c1-c1ccc(Cl)c(Cl)c1 [Compound 104, 2-(3,4-dichlorophenyl)-1-ethyl-6-[(6-fluoro-4-hydroxy-2-pyridyl)methyl]-4-oxo-pyridine-3-carboxylic acid]
0: percentage damage caused to the plant, IPOHE [9]

CCn1c(Cc2ccc(C#N)c(=O)[nH]2)cc(=O)c(C(=O)O)c1-c1ccc(Cl)c(Cl)c1 [Compound 114, 6-[(5-cyano-6-oxo-1H-pyridin-2-yl)methyl]-2-(3,4-dichlorophenyl)-1-ethyl-4-oxo-pyridine-3-carboxylic acid]
0: percentage damage caused to the plant, AMAPA ([1]; rate 250 g/Ha) | percentage damage caused to the plant, SETFA (Setaria faberi (SETFA); rate 250 g/Ha) | percentage damage caused to the plant, AMARE ([2]; rate 250 g/Ha) | percentage damage caused to the plant, ECHCG ([3]; rate 250 g/Ha) | percentage damage caused to the plant, ZEAMX (Zea mays (ZEAMX) [4]; rate 250 g/Ha)

CCOc1cccc(Cc2cc(=O)c(C(=O)O)c(-c3ccc(Cl)c(Cl)c3)n2CC)n1 [Compound 127, 2-(3,4-dichlorophenyl)-6-[(6-ethoxy-2-pyridyl)methyl]-1-ethyl-4-oxo-pyridine-3-carboxylicacid]
0: Pre-emergence Test, percentage damage caused to the plant (five-point scale), AMARE [5] | Pre-emergence Test, percentage damage caused to the plant (five-point scale), IPOHE ([6]; Rate 250 g/Ha) | percentage damage caused to the plant, SETFA (Setaria faberi (SETFA); rate 250 g/Ha) | percentage damage caused to the plant, ECHCG ([3]; rate 250 g/Ha) | Pre-emergence Test, percentage damage caused to the plant (five-point scale), ECHCG ([7]; Rate 250 g/Ha) | Pre-emergence Test, percentage damage caused to the plant (five-point scale), ZEAMX (Zea mays (ZEAMX) [8]; Rate 250 g/Ha) | Pre-emergence Test, percentage damage caused to the plant (five-point scale), AMAPA [10] | percentage damage caused to the plant, ZEAMX (Zea mays (ZEAMX) [4]; rate 250 g/Ha)

CCn1c(Cc2cc(C)on2)cc(=O)c(C(=O)O)c1-c1ccc(Cl)c(Cl)c1 [Compound 135, 2-(3,4-dichlorophenyl)-1-ethyl-6-[(5-methylisoxazol-3-yl)methyl]-4-oxo-pyridine-3-carboxylic acid]
0: Pre-emergence Test, percentage damage caused to the plant (five-point scale), IPOHE ([6]; Rate 250 g/Ha) | percentage damage caused to the plant, SETFA (Setaria faberi (SETFA); rate 250 g/Ha) | percentage damage caused to the plant, ECHCG ([3]; rate 250 g/Ha) | Pre-emergence Test, percentage damage caused to the plant (five-point scale), ECHCG ([7]; Rate 250 g/Ha) | Pre-emergence Test, percentage damage caused to the plant (five-point scale), ZEAMX (Zea mays (ZEAMX) [8]; Rate 250 g/Ha) | Pre-emergence Test, percentage damage caused to the plant (five-point scale), AMAPA [10]
